From ChEMBL document CHEMBL3120091, “Microwave-assisted synthesis and myorelaxant activity of 9-indolyl-1,8-acridinedione derivatives” (2014)
Active and inactive are the calls of the source. The calls are words filed in the database; no cut-off is given here.

Key:
Stomach [1] = experiment: Myorelaxant activity in New Zealand white rabbit gastric fundus smooth muscle assessed as relaxation of noradrenaline-induced contraction in presence of glibenclamide; type: functional, tissue-based; conditions: Oryctolagus cuniculus
Stomach [2] = experiment: Myorelaxant activity in New Zealand white rabbit gastric fundus smooth muscle assessed as relaxation of noradrenaline-induced contraction in presence of tetraethylammonium chloride; type: functional, tissue-based; conditions: Oryctolagus cuniculus
Stomach [3] = experiment: Myorelaxant activity in New Zealand white rabbit gastric fundus smooth muscle assessed as relaxation of noradrenaline-induced contraction; type: functional, Oryctolagus cuniculus
Stomach [4] = experiment: Myorelaxant activity in New Zealand white rabbit gastric fundus smooth muscle assessed as relaxation of noradrenaline-induced contraction at 3 x 10^-4 M relative to control; type: functional; conditions: Oryctolagus cuniculus
Stomach [5] = experiment: Myorelaxant activity in New Zealand white rabbit gastric fundus smooth muscle assessed as relaxation of noradrenaline-induced contraction in presence of L-NAME; type: functional, tissue-based; conditions: Oryctolagus cuniculus
Stomach [6] = experiment: Myorelaxant activity in New Zealand white rabbit gastric fundus smooth muscle assessed as relaxation of noradrenaline-induced contraction in presence of propranolol; type: functional, tissue-based; conditions: Oryctolagus cuniculus
Stomach [7] = experiment: Myorelaxant activity in New Zealand white rabbit gastric fundus smooth muscle assessed as relaxation of noradrenaline-induced contraction in presence of indomethacin; type: functional, tissue-based; conditions: Oryctolagus cuniculus

SMILES	Activity (Stomach [1])	Activity (Stomach [2])	pD2 (Stomach [3])	Emax at 300 µM (Stomach [4]) [%]	Activity (Stomach [5])	Activity (Stomach [6])	Activity (Stomach [7])	pD2 (Stomach [3]; Oryctolagus cuniculus)	Emax (Stomach [4])
Cn1c(C2C3=C(CC(C)(C)CC3=O)NC3=C2C(=O)CC(C)(C)C3)cc2ccccc21	Active	Active	4.1	34	–	–	–	–	–
CC1(C)CC(=O)C2=C(C1)NC1=C(C(=O)CC(C)(C)C1)C2c1c[nH]c2cc(Br)ccc12	Active	Active	4.25	52.7	–	–	–	–	–
O=C1CCCC2=C1C(c1c[nH]c3cc(Br)ccc13)C1=C(CCCC1=O)N2	–	–	–	–	Active	Active	Active	inactive	inactive
Cn1c(C2C3=C(CCCC3=O)NC3=C2C(=O)CCC3)cc2ccccc21	–	–	–	–	Active	Active	Active	inactive	inactive
CC(N/C(=N\C#N)Nc1ccncc1)C(C)(C)C (stereo not given) [PINACIDIL ANHYDROUS]	–	–	3.9	63.8	–	–	–	–	–
Cn1c(C2C3=C(CCC(C)(C)C3=O)NC3=C2C(=O)C(C)(C)CC3)cc2ccccc21	Active	Active	4.6	11.6	–	–	–	–	–
CC1(C)CCC2=C(C1=O)C(c1c[nH]c3cc(Br)ccc13)C1=C(CCC(C)(C)C1=O)N2	Active	Active	4.54	12	–	–	–	–	–
Cn1cc(C2C3=C(CCC(C)(C)C3=O)NC3=C2C(=O)C(C)(C)CC3)c2ccccc21	–	–	–	–	Active	Active	Active	inactive	inactive
CC1(C)CCC2=C(C1=O)C(c1c[nH]c3ccc(Br)cc13)C1=C(CCC(C)(C)C1=O)N2	Active	Active	4.46	17.5	–	–	–	–	–
Cn1cc(C2C3=C(CCCC3=O)NC3=C2C(=O)CCC3)c2ccccc21	–	–	–	–	Active	Active	Active	inactive	inactive
CC1(C)CC(=O)C2=C(C1)NC1=C(C(=O)CC(C)(C)C1)C2c1c[nH]c2ccc(Br)cc12	Active	Active	3.85	71.5	–	–	–	–	–
Cn1cc(C2C3=C(CC(C)(C)CC3=O)NC3=C2C(=O)CC(C)(C)C3)c2ccccc21	Active	Active	4.28	28.6	–	–	–	–	–
O=C1CCCC2=C1C(c1c[nH]c3ccc(Br)cc13)C1=C(CCCC1=O)N2	–	–	–	–	Active	Active	Active	inactive	inactive
